The record followed here is patent US20110028504A1, “Formulation of radioprotective alpha beta unsaturated aryl sulfones” (ONCONOVA THERAPEUTICS, INC., priority 2005, published 2011).

Holding throughout (type): physicochemical
Series [1] is described as follows: Solid-state stability at 75° C. The protocol:
The stability of ON.1210.Na in the solid state is determined by exposing the drug at 75° C. over a prolonged time. The sample is crimped in a 10 mL injection vial and kept at the above temperature. The sample is collected after 15 days and one month and reconstituted with diluting solution and its concentration is determined by HPLC. Appearance of any additional peak in the chromatogram is also noted. A control sample is represented by ON.1210.Na not exposed to 75° C. and reconstituted to a known concentration with diluting solution.

The nature of series [2]: Forced degradation studies (HPLC). The protocol:
In order to establish the specificity of this assay procedure several forced degradation studies were conducted as follows:
The ON.1210.Na sample is prepared in HPLC grade water at a concentration of 200 μg/mL. All the peaks detected in the chromatogram at time zero are noted with their corresponding retention time and absolute peak areas. The solution is crimped into a 5 mL glass vial and autoclaved. After autoclaving, the sample is filtered through a 0.1μ filter and 20 μL of the filtered sample is analyzed. The absolute peak area of the peak after autoclaving and appearance of any additional peaks due to possible degradation is shown in Table 9.
One ml of the 500 μg/mL standard solution is mixed with 1 mL of 0.1 N HCl. The sample is cloudy in appearance and filtered prior to HPLC analysis. All the peaks detected in the chromatogram at time zero are noted with their corresponding retention time and absolute peak areas. The solution is crimped into a 5 mL glass vial and autoclaved. After autoclaving, the sample is filtered through a 0.1μ filter and […] of the filtered sample is analyzed by HPLC. The absolute peak areas of the peak after autoclaving, and appearance of any other peaks due to possible degradation are noted.
One ml of the 500 μg/mL standard solution is mixed with 1 mL of 0.1 N NaOH. The sample is clear in appearance. All the peaks detected in the chromatogram at time zero are noted with their corresponding retention time and absolute peak area. The solution is crimped into a 5 mL glass vial and autoclaved. After autoclaving, the sample is filtered through a 0.1μ filter and 20 μL of the filtered sample is analyzed. The absolute peak area of the peaks after autoclaving and appearance of any other peaks due to possible degradation are noted.
A solid drug sample (ON1210), after autoclaving in a crimped vial, is also evaluated for any degradation using the developed HPLC method. The sample, after autoclaving, is used to make a standard solution of 400 μg/mL and injected onto HPLC.
In this study, 30% of the hydrogen peroxide is diluted to 3% (v/v) with water. One ml of the 500 μg/mL standard solution is mixed with 1 mL of 3% hydrogen peroxide; then incubated at 50° C. over a period of two hours. All the peaks detected in the chromatogram at different time points are noted with their corresponding retention time and absolute peak areas. The chromatograms are run for 30 minute periods.

Series [3] in a line: Saturated solubility in different solvent systems.
Series [4] is described as follows: pH solubility testing in McIlvaine type buffer. The conditions noted are these: thermodynamic from solid, read-out: Observed Solubility (C5). The protocol: The solubility of ON.1210.Na salt is tested in McIlvaine type buffer with 0.1 M ionic strength. The buffers are prepared using the recipe mentioned in Table 17 The final pH is adjusted using 0.1N sodium hydroxide or 0.1N hydrochloric acid until the pH is within ±0.1 pH units of the target pH. The pKa of the drug calculated from pH-solubility study is depicted in Table 19. The solubility of the ON.1210.Na salt is tested in a McIlvaine type buffer with 0.1 M ionic strength. The buffers are prepared using the recipe mentioned in Table 16 using various volumes of 0.15 M citric acid monohydrate, and 0.2 M sodium phosphate dibasic, 12 hydrate. The final pH is adjusted using 0.1N sodium hydroxide or 0.1N hydrochloric acid until the pH is within ±0.1 pH units of the target pH. The samples for the pH solubility study are prepared by adding 10-20 mg of ON.1210.Na salt to a 4 mL vial. Then 1 mL of the appropriate pH buffer is added to the vial. The solution is mixed on a vortex genie for approximately 30 seconds. If the solution looks clear, additional drug is added. No additional drug is added to solutions which appear to be clear at a concentration of greater than 50 mg/mL. The study is done in duplicate. Once the solutions are prepared, the initial pH of the samples are measured. The solutions are then protected from light, and placed on a shaker. The solutions are agitated for 24 to 96 hours at ambient conditions. The vials are then removed from the orbital shaker, and the final pH of the solutions is measured for each sample. The solutions are then filtered, and analyzed by HPLC.

Turning to `O=C([O-])c1ccc(/C=C/S(=O)(=O)Cc2ccc(Cl)cc2)cc1.[Na+]` [ON.1210.Na, (E)-4-Carboxystyryl-4-chlorobenzylsulfone, Sodium Salt], the “accelerated solid-state stability of the bulk drug substance” value in series [1] is recorded as “no evidence of degradation”. Besides, the “stability of the aqueous solution on autoclaving” value in series [2] (200 μg/mL in water) is listed as “stable under autoclaving conditions”. In series [2] (0.05N NaOH, autoclaving), the “degradation under alkaline condition” value is “Significantly more degradation is present under alkaline condition”. Moreover, in series [2] (in presence of strong acid (0.05N HCl)), the degradation upon autoclaving result is “less than 10%”. The “stability of the solid on autoclaving” value in series [2] (solid drug autoclaved in a crimped vial, then 400 μg/mL by HPLC) is “stable under the autoclaving conditions”. Besides, the Solubility (usually how much of the substance goes into solution per volume) came out at 9.5 mg/mL in series [3] (0.25% Tween 80 in phosphate buffer, pH of solution 8.45); 9.8 mg/mL in series [3] (0.5% Tween 80 in phosphate buffer, pH of solution 8.41); 8.9 mg/mL in series [3] (1% Tween 80 in phosphate buffer, pH of solution 8.45); 9.7 mg/mL in series [3] (2% Tween 80 in phosphate buffer, pH of solution 8.39); 9 mg/mL in series [3] (2% tween 80 in water, pH of solution 8.78); 46 mg/mL in series [3] (10% cyclodextran, 24 hours of equilibration, pH of solution 8.14). In addition, the Solubility in series [3] (10% cyclodextran, 48 hours of equilibration, pH of solution 8.41) came out at 41 mg/mL; in series [3] (50% PEG400:water, pH of solution 7.53) it was 40 mg/mL; in series [3] (50:50 PEG400:ethanol, pH of solution 8.46) it was 37 mg/mL; in series [3] (PEG300 (IP10 g/kg), pH of solution 8.21), 52.04 mg/mL; in series [4] (pH 4, aqueous buffer), 0.154 µg/mL; in series [4] (pH 5, aqueous buffer), 37.9 µg/mL. The Solubility in series [4] (pH 6, aqueous buffer) came out at 715 µg/mL; in series [4] (pH 7.4, aqueous buffer) it was 11100 µg/mL; in series [4] (pH 8, aqueous buffer), 16800 µg/mL; in series [4] (pH 9, aqueous buffer) it was 23300 µg/mL.
